Measurements as given in patent US20260355199A1, “COMPOSITIONS AND METHODS FOR TREATING OR PREVENTING NONALCOHOLIC STEATOHEPATITIS (NASH), ANOREXIA, DEPRESSION, ENDOMETRIOSIS, AND OTHER DISEASES OR DISORDERS” (priority 2022, published 2026).
“Also recorded” adds a separate entry of the source.

How the values were obtained:
Tet3 mRNA = Tet3 mRNA (RT-qPCR) in GT1-7 cells; format: cell-based, mouse; conditions: 10 μM, 6 h
Description: (§1) For Bobcat339 treatment (FIG. 15A and FIG. 15B), GT1-7 cells grown in 24-well plates at 2×10^5 cells/well were incubated with vehicle or Bobcat339 at a final concentration of 10 μM for 6 h, followed by RNA and protein extractions. For TET3 protein stability assay (FIG. 15B), GT1-7 cells in 24-well plates at 2×10^5 cells/well were incubated with vehicle or Bobcat339 at a final concentration of 10 μM for 3 hours, followed by addition of cycloheximide (CHX, Cell Signaling, 2112) at a final concentration of […] in the presence of 10 μM of Bobcat339. Proteins were harvested at 0, 1, 2, and 3 hours after addition of CHX. For TET3 expression restoration experiments (FIG. 15C and FIG. 15D), GT1-7 or SH-SY5Y cells seeded in 24-well plates at 2×10^5 cells/well were infected with Ad-GFP or Ad-TET3 at 4000 gc/cell. Following 16 h of infection, vehicle or Bobcat339 were added at a final concentration of 10 μM. Protein and RNA were isolated 48 h later and analyzed.
Total RNAs were extracted from neuronal cells or homogenized hypothalamic arcuate nucleus tissue samples using PureLink RNA Mini Kit (Ambion, 12183025). cDNA was synthesized using PrimeScript RT Reagent Kit in a 20 μl reaction containing 0.5-1 μg of total RNA. Real-time quantitative PCR was performed in a 15 μl reaction containing 0.5-1 μl of cDNA using SsoAdvanced Universal SYBR Green Supermix in a Bio-Rad iCycler. […]

TET3 [1] = test: TET3 protein stability (cycloheximide time course) in GT1-7 cells; format: cell-based; conditions: 10 μM, with cycloheximide; mouse neuronal cells
Description: as §1

let-7a = let-7a level in mouse peritoneal macrophages; format: cell-based; conditions: 10 μM, 48 h
Description: For cultured mouse peritoneal macrophages, cells were primed with 30 ng/ml of TGF-β1 (R&D Systems, 7666-MB0-005) for 48 h (to increase TET3 expression) before Bobcat339 treatment. Bobcat339 (or DMSO) was added at a final concentration of 10 μM, followed by RNA and protein extraction at time points indicated in the figure legends.
For let-7a qPCR, 10 ng of total RNA was reverse transcribed to cDNA in a reaction volume of 10 μl using miRCURY LNA RT Kit (QIAGEN, 339340). Quantitative real-time PCR reactions were carried out using miRCURY LNA SYBR Green PCR Kit (QIAGEN, 339346) and a let-7a-specific primer (Has-Let-7a-5p miRCURY LNA miRNA PCR Assay, QIAGEN, 339306/YP00205727) in a Bio-Rad iCycler. Gene expression levels were normalized against U6 (U6 snRNA v2 miRURY LNA miRNA PCR Assay, QIAGEN, 339306/YPO2119464, QIAGEN).

TET2 = conditions: cited from earlier work
[2] = tested on: activity-based anorexia (ABA) mice; conditions: temporal (3 days); cited from earlier work
TET3 [3] = conditions: Lv et al., 2023; cited from earlier work
[4] = dosage and administration regimes used; cited from earlier work
Tet3 and Agrp = Tet3 and Agrp expression in leptin-treated GT1-7 cells; format: cell-based, mouse
Description: Mouse GT1-7 hypothalamic neuronal cell line (Sigma-Aldrich, SCC116), human SH-SY5Y neuronal blastoma cell line (ATCC, CRL-2266), and embryonic mouse hypothalamus cell line N11 (mHypoE-N11) (Cedarlane, CLU107) were purchased and cultured according to the manufacturers' instructions. For siRNA transfection in a 24-well plate scale, cells were seeded at a density of 2×10^5 cells/well the day before transfection. To prepare siRNA transfection solution for each well of cells, 5 pmol of NT siRNA (non-targeting control siRNA, AM4636, Ambion), Tet3 siRNA (siRNA specifically targeting mouse Tet3, 4390815/s101483, Ambion), or TET3 siRNA (siRNA specifically targeting human TET3, 4392420/s47238, Ambion) (Cao et al., 2019, Oncogene, 38:5356-5366; Xu et al., 2020, Cell Rep., 30:1310-1318) were mixed with 25 μl of OPTI-MEM (Gibco, 31985-070) by gentle pipetting (Cao, T. et al., 2019, Oncogene, 38:5356-5366; Xu, Y. et al., 2020, Cell Reports, 30:1310-1318 e5). In parallel, 1.5 μl of Lipofectamine RNAiMAX (Invitrogen, 13778-150) was mixed with 25 μl of OPTI-MEM by gentle pipetting. Following 5 min of incubation at room temperature, the resulting 50 μl of transfection solution was added to one well of cells containing 1 ml culture media. […]

Compound: Nc1nc(=O)n(-c2cccc(-c3ccccc3)c2)cc1Cl [Bobcat339, 4-Amino-1-[1,1′-biphenyl]-3-yl-5-chloro-2(1H)-pyrimidinone]
- Tet3 mRNA abundance (Tet3 mRNA): without affecting its mRNA abundance; also recorded: without altering its mRNA abundance; also recorded: no significant difference between the two groups
- TET3 protein stability (TET3 [1]): induced protein degradation of TET3; also recorded: less stable
- let-7a level (let-7a): higher levels of let-7a
- inhibitory activity against TET2 (TET2; in the absence of contaminating copper (II)): negligible inhibitory activity
- inhibition of enzymatic activity of TET2 (TET2; initially reported): inhibit the enzymatic activity
- food intake [2]: increase food intake
- minimal effective concentration (TET3 [3]): 10 µM
- adverse pathology [4]: minimal adverse pathology

Compound: leptin: adipose hormone; mouse leptin L3772-1MG or human leptin L4146-1MG, Sigma Aldrich
- Tet3 expression (Tet3 and Agrp; leptin 1×10^−8 M vs. 1×10^−10 M): a positive effect on Tet3 expression; also recorded: upregulated TET3
- Agrp expression in response to increased leptin (Tet3 and Agrp; with TET3 knockdown): no longer decreased in response to increased leptin
